From the supplement of paper PMC10307832

Columns and labels:
Assay in all cases: relative viability (nuclei count vs DMSO), 5 days (fraction); higher = more cells survive
NCI-H1563 = test system: NCI-H1563
Method in brief: (§1)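 Lung cancer cell lines in 1536-well plates got either a single drug or a fixed anchor-drug dose together with five library-drug doses (not always all listed) in √10 steps, by pin tool, on the day after seeding. Nuclei were counted after 5 days, and relative viability is the treated-to-vehicle ratio of nuclei counts. Values are medians of duplicate plates.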

NCI-H2087 = test system: NCI-H2087
Method in brief: as §1

NCI-H1299 = test system: NCI-H1299
Method in brief: as §1

HCC-44 = test system: HCC-44
Method in brief: as §1

IA-LM = test system: IA-LM
Method in brief: as §1

EBC-1 = test system: EBC-1
Method in brief: as §1

NCI-H322M = test system: NCI-H322M
Method in brief: as §1

NCI-H1703 = test system: NCI-H1703
Method in brief: as §1

HCC-78 = test system: HCC-78
Method in brief: as §1

Calu-6 = test system: Calu-6
Method in brief: as §1

A549 = test system: A549
Method in brief: as §1

Nc1cccc2c1CN(C1CCC(=O)NC1=O)C2=O (configuration not stated) [Lenalidomide] + CC(C)C[C@H](NC(=O)[C@H](Cc1ccccc1)NC(=O)c1cnccn1)B(O)O [Bortezomib] (partner 0.002 µM)
relative viability (NCI-H1563; first compound 0.253 µM): 0.807 | relative viability (NCI-H1563; first compound 0.8 µM): 0.846 | relative viability (NCI-H1563; first compound 2.53 µM): 0.887 | relative viability (NCI-H1563; first compound 8 µM): 0.748 | relative viability (NCI-H2087; first compound 0.253 µM): 0.772 | relative viability (NCI-H2087; first compound 0.8 µM): 0.656 | relative viability (NCI-H2087; first compound 2.53 µM): 0.922 | relative viability (NCI-H2087; first compound 8 µM): 0.835 | relative viability (NCI-H1299; first compound 0.253 µM): 1.03 | relative viability (NCI-H1299; first compound 0.8 µM): 1.01 | relative viability (NCI-H1299; first compound 2.53 µM): 1.06 | relative viability (NCI-H1299; first compound 8 µM): 1.06 | relative viability (HCC-44; first compound 0.253 µM): 0.904 | relative viability (HCC-44; first compound 0.8 µM): 0.701 | relative viability (HCC-44; first compound 2.53 µM): 0.912 | relative viability (HCC-44; first compound 8 µM): 0.832 | relative viability (IA-LM; first compound 0.253 µM): 0.946 | relative viability (IA-LM; first compound 0.8 µM): 0.753 | relative viability (IA-LM; first compound 2.53 µM): 0.884 | relative viability (IA-LM; first compound 8 µM): 0.764 | relative viability (EBC-1; first compound 0.253 µM): 0.653 | relative viability (EBC-1; first compound 0.8 µM): 0.589 | relative viability (EBC-1; first compound 2.53 µM): 0.684 | relative viability (EBC-1; first compound 8 µM): 0.564 | relative viability (NCI-H322M; first compound 0.253 µM): 1.18 | relative viability (NCI-H322M; first compound 0.8 µM): 1.21 | relative viability (NCI-H322M; first compound 2.53 µM): 1.31 | relative viability (NCI-H322M; first compound 8 µM): 1.17 | relative viability (NCI-H1703; first compound 0.253 µM): 0.231 | relative viability (NCI-H1703; first compound 0.8 µM): 0.399 | relative viability (NCI-H1703; first compound 2.53 µM): 0.328 | relative viability (NCI-H1703; first compound 8 µM): 0.47 | relative viability (HCC-78; first compound 0.253 µM): 0.469 | relative viability (HCC-78; first compound 0.8 µM): 0.368 | relative viability (HCC-78; first compound 2.53 µM): 0.461 | relative viability (HCC-78; first compound 8 µM): 0.392 | relative viability (Calu-6; first compound 0.253 µM): 1.04 | relative viability (Calu-6; first compound 0.8 µM): 1.01 | relative viability (Calu-6; first compound 2.53 µM): 0.997 | relative viability (Calu-6; first compound 8 µM): 1.06

CCNC(=O)c1noc(-c2cc(C(C)C)c(O)cc2O)c1-c1ccc(CN2CCOCC2)cc1 [Luminespib] + CC1(C)CCC(c2ccc(Cl)cc2)=C(CN2CCN(c3ccc(C(=O)NS(=O)(=O)c4ccc(N[C@H](CCN5CCOCC5)CSc5ccccc5)c(S(=O)(=O)C(F)(F)F)c4)cc3)CC2)C1 [Navitoclax] (partner 0.5 µM)
relative viability (NCI-H2087; first compound 0.002 µM): 1.03 | relative viability (NCI-H2087; first compound 0.006325 µM): 0.871 | relative viability (NCI-H2087; first compound 0.02 µM): 0.911 | relative viability (NCI-H2087; first compound 0.06325 µM): 0.202 | relative viability (NCI-H2087; first compound 0.2 µM): 0.202 | relative viability (NCI-H1299; first compound 0.002 µM): 1.03 | relative viability (NCI-H1299; first compound 0.006325 µM): 1.01 | relative viability (NCI-H1299; first compound 0.02 µM): 1.07 | relative viability (NCI-H1299; first compound 0.06325 µM): 0.975 | relative viability (NCI-H1299; first compound 0.2 µM): 0.295 | relative viability (HCC-44; first compound 0.002 µM): 0.943 | relative viability (HCC-44; first compound 0.006325 µM): 0.99 | relative viability (HCC-44; first compound 0.02 µM): 1.18 | relative viability (HCC-44; first compound 0.06325 µM): 0.957 | relative viability (HCC-44; first compound 0.2 µM): 0.129 | relative viability (IA-LM; first compound 0.002 µM): 0.752 | relative viability (IA-LM; first compound 0.006325 µM): 0.792 | relative viability (IA-LM; first compound 0.02 µM): 0.549 | relative viability (IA-LM; first compound 0.06325 µM): 0.061 | relative viability (IA-LM; first compound 0.2 µM): 0.058 | relative viability (EBC-1; first compound 0.002 µM): 0.489 | relative viability (EBC-1; first compound 0.006325 µM): 0.488 | relative viability (EBC-1; first compound 0.02 µM): 0.241 | relative viability (EBC-1; first compound 0.06325 µM): 0.142 | relative viability (EBC-1; first compound 0.2 µM): 0.133 | relative viability (NCI-H322M; first compound 0.002 µM): 1.14 | relative viability (NCI-H322M; first compound 0.006325 µM): 1.09 | relative viability (NCI-H322M; first compound 0.02 µM): 1.02 | relative viability (NCI-H322M; first compound 0.06325 µM): 1.16 | relative viability (NCI-H322M; first compound 0.2 µM): 1.28 | relative viability (A549; first compound 0.002 µM): 1.22 | relative viability (A549; first compound 0.006325 µM): 1.15 | relative viability (A549; first compound 0.02 µM): 1.11 | relative viability (A549; first compound 0.06325 µM): 0.0452 | relative viability (A549; first compound 0.2 µM): 0.0433 | relative viability (NCI-H1703; first compound 0.002 µM): 1.34 | relative viability (NCI-H1703; first compound 0.006325 µM): 0.925 | relative viability (NCI-H1703; first compound 0.02 µM): 0.371 | relative viability (NCI-H1703; first compound 0.06325 µM): 0.147 | relative viability (NCI-H1703; first compound 0.2 µM): 0.138 | relative viability (HCC-78; first compound 0.002 µM): 0.874 | relative viability (HCC-78; first compound 0.06325 µM): 1.12 | relative viability (HCC-78; first compound 0.2 µM): 0.21 | relative viability (Calu-6; first compound 0.002 µM): 0.836 | relative viability (Calu-6; first compound 0.006325 µM): 0.772 | relative viability (Calu-6; first compound 0.02 µM): 1.08 | relative viability (Calu-6; first compound 0.06325 µM): 0.116 | relative viability (Calu-6; first compound 0.2 µM): 0.107

CCNC(=O)c1noc(-c2cc(C(C)C)c(O)cc2O)c1-c1ccc(CN2CCOCC2)cc1 [Luminespib] + CC(C)C[C@H](NC(=O)[C@H](Cc1ccccc1)NC(=O)c1cnccn1)B(O)O [Bortezomib] (partner 0.002 µM)
relative viability (NCI-H1563; first compound 0.002 µM): 0.956 | relative viability (NCI-H1563; first compound 0.006325 µM): 0.821 | relative viability (NCI-H1563; first compound 0.02 µM): 0.535 | relative viability (NCI-H1563; first compound 0.06325 µM): 0.479 | relative viability (NCI-H1563; first compound 0.2 µM): 0.507 | relative viability (NCI-H2087; first compound 0.002 µM): 1.03 | relative viability (NCI-H2087; first compound 0.006325 µM): 0.676 | relative viability (NCI-H2087; first compound 0.02 µM): 0.796 | relative viability (NCI-H2087; first compound 0.06325 µM): 0.141 | relative viability (NCI-H2087; first compound 0.2 µM): 0.142 | relative viability (NCI-H1299; first compound 0.002 µM): 1.01 | relative viability (NCI-H1299; first compound 0.006325 µM): 0.999 | relative viability (NCI-H1299; first compound 0.02 µM): 1.04 | relative viability (NCI-H1299; first compound 0.06325 µM): 0.946 | relative viability (NCI-H1299; first compound 0.2 µM): 0.248 | relative viability (HCC-44; first compound 0.002 µM): 0.895 | relative viability (HCC-44; first compound 0.006325 µM): 0.881 | relative viability (HCC-44; first compound 0.02 µM): 1.09 | relative viability (HCC-44; first compound 0.06325 µM): 0.139 | relative viability (HCC-44; first compound 0.2 µM): 0.145 | relative viability (IA-LM; first compound 0.002 µM): 0.819 | relative viability (IA-LM; first compound 0.006325 µM): 0.951 | relative viability (IA-LM; first compound 0.02 µM): 0.648 | relative viability (IA-LM; first compound 0.06325 µM): 0.067 | relative viability (IA-LM; first compound 0.2 µM): 0.0656 | relative viability (EBC-1; first compound 0.002 µM): 0.583 | relative viability (EBC-1; first compound 0.006325 µM): 0.541 | relative viability (EBC-1; first compound 0.02 µM): 0.318 | relative viability (EBC-1; first compound 0.06325 µM): 0.118 | relative viability (EBC-1; first compound 0.2 µM): 0.169 | relative viability (NCI-H322M; first compound 0.002 µM): 1.21 | relative viability (NCI-H322M; first compound 0.006325 µM): 1.27 | relative viability (NCI-H322M; first compound 0.02 µM): 1.05 | relative viability (NCI-H322M; first compound 0.06325 µM): 1.32 | relative viability (NCI-H322M; first compound 0.2 µM): 0.814 | relative viability (NCI-H1703; first compound 0.002 µM): 0.494 | relative viability (NCI-H1703; first compound 0.006325 µM): 0.415 | relative viability (NCI-H1703; first compound 0.02 µM): 0.224 | relative viability (NCI-H1703; first compound 0.06325 µM): 0.13 | relative viability (NCI-H1703; first compound 0.2 µM): 0.14 | relative viability (HCC-78; first compound 0.002 µM): 0.441 | relative viability (HCC-78; first compound 0.006325 µM): 0.527 | relative viability (HCC-78; first compound 0.06325 µM): 0.745 | relative viability (HCC-78; first compound 0.2 µM): 0.262 | relative viability (Calu-6; first compound 0.002 µM): 1.06 | relative viability (Calu-6; first compound 0.006325 µM): 0.883 | relative viability (Calu-6; first compound 0.02 µM): 1.21 | relative viability (Calu-6; first compound 0.06325 µM): 0.141 | relative viability (Calu-6; first compound 0.2 µM): 0.159
